25 compounds from patent publication US10501461B2, “Tyrosine amide derivatives as Rho-kinase inhibitors” (CHIESI FARMACEUTICI S.P.A., priority 2017, dated 2019) can be followed below.

The target in one experiment is Rho kinase 2 (ROCK-II) (Homo sapiens, UniProt O75116). Kind of experiment: In vitro Rho kinase inhibitory activity assay (ADP-Glo), Rho kinase 2. The settings on record: 10 μM ATP, 25° C., expressed as range of activity. The format is biochemical. The procedure: (§1) The effectiveness of compounds of the present invention to inhibit Rho kinase activity can be determined in a 10 μl assay containing 40 mM Tris pH7.5, 20 mM MgCl2 0.1 mg/ml BSA, 50 μM DTT and 2.5 μM peptide substrate (Myelin Basic Protein) using an ADP-Glo kit (Promega). Compounds were dissolved in DMSO such that the final concentration of DMSO was 1% in the assay. All reactions/incubations are performed at 25° C. Compound (2 ul) and either Rho kinase 1 or 2 (4 μl) were mixed and incubated for 30 mins. Reactions were initiated by addition of ATP (4 μl) such that the final concentration of ATP in the assay was 10 μM. After a 1 hour incubation 10 μl of ADP-Glo Reagent was added and after a further 45 minute incubation 20 ul of Kinase Detection Buffer was added and the mixture incubated for a further 30 minutes. The luminescent signal was measured on a luminometer. […] Compounds were tested in dose-response format and the inhibition of kinase activity was calculated at each concentration of compound. To determine the IC50 (concentration of compound required to inhibit 50% of the enzyme activity) data were fit to a plot of % inhibition vs Log10 compound concentration using a sigmoidal fit with a variable slope and fixing the maximum to 100% and the minimum to 0%. To determine the Ki values the Cheng-Prusoff equation was utilized (Ki=IC50/(1+[S]/Km).
Sequence of Rho kinase 2 (ROCK-II) (O75116 whole entry): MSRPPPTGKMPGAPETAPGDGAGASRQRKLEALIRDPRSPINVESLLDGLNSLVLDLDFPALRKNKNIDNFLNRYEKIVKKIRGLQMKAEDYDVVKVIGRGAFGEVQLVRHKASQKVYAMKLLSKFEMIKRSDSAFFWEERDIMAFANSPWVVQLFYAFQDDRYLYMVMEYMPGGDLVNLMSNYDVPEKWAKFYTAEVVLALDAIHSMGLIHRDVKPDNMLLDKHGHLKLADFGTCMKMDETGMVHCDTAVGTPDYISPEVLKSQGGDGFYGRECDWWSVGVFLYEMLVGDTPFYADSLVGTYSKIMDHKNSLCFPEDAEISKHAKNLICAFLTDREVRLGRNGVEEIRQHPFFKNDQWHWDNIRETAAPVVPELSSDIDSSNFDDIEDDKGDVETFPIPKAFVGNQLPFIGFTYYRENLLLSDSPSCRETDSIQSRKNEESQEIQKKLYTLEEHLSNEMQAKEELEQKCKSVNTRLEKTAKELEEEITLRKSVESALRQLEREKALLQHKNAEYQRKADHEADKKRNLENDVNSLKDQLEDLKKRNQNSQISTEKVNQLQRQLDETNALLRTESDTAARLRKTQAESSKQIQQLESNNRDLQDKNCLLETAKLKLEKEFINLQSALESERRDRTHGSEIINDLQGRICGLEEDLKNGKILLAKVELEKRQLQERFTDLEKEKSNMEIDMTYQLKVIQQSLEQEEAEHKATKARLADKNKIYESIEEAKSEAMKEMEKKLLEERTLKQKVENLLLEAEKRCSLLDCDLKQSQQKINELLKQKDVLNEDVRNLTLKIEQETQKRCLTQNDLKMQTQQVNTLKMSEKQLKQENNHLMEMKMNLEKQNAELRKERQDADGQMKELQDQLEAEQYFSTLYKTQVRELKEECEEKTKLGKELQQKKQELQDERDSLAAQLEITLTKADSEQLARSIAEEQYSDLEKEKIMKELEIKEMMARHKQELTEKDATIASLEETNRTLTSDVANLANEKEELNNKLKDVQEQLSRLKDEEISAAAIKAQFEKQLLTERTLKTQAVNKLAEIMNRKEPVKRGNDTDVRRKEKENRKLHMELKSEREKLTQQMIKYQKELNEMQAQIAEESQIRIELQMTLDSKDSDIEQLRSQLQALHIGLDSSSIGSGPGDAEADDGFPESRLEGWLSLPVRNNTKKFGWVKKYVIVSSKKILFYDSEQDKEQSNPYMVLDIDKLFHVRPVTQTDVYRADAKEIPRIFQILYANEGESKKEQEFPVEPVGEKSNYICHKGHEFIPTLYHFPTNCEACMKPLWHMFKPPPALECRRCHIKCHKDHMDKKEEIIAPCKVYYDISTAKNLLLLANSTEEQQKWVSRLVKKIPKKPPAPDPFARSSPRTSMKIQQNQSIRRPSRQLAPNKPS
(In general: ADP-Glo first removes unused ATP, then detects ADP through luciferase.)

A further experiment deals with Rho kinase 1 (ROCK-I) (Homo sapiens, UniProt Q13464). Kind of experiment: In vitro Rho kinase inhibitory activity assay (ADP-Glo), Rho kinase 1. The format is biochemical. Particulars: 10 μM ATP, 25° C., expressed as range of activity. The protocol:
as §1

Sequence of Rho kinase 1 (ROCK-I) (Q13464 whole entry): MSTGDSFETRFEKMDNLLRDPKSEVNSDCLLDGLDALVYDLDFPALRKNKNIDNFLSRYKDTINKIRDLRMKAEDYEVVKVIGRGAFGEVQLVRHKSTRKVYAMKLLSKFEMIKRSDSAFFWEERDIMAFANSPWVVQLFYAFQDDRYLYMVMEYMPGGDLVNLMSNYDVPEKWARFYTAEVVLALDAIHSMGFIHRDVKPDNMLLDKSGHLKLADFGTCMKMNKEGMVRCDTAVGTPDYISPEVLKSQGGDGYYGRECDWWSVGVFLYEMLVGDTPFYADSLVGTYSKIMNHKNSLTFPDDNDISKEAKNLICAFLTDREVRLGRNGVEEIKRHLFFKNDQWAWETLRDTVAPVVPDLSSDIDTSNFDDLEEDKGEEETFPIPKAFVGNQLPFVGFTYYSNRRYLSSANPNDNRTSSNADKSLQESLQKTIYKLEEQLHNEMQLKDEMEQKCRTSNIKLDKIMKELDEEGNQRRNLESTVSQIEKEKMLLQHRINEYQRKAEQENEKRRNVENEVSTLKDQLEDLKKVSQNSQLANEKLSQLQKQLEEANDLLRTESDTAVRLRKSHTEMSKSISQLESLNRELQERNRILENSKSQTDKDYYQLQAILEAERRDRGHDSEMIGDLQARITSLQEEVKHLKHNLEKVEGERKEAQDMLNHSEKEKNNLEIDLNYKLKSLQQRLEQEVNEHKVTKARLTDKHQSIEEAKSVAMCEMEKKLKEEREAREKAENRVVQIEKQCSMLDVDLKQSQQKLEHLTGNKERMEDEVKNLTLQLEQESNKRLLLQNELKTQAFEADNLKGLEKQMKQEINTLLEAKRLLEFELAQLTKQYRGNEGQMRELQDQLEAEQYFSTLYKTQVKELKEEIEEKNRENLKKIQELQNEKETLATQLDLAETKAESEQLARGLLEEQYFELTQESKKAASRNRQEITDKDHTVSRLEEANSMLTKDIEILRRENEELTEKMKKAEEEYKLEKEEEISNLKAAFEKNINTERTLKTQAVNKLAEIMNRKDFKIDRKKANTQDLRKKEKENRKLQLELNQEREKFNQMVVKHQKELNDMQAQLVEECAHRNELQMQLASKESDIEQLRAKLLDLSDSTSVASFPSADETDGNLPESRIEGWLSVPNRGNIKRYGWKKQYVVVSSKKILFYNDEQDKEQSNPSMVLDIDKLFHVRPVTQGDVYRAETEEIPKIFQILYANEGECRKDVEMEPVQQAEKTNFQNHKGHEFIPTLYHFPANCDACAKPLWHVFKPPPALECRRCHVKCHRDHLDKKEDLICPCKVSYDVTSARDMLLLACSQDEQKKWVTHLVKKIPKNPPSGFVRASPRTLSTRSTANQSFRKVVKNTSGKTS

As usually defined, the Ki is a dissociation constant, usually derived from enzyme kinetics or from competition with a known ligand. Lower therefore signals higher affinity. Regarding `CN(C)C(Cc1ccc(Oc2ccnc3[nH]ccc23)cc1)C(=O)NC1CCOCC1` (centres unmarked) [Example 182, 3-(4-((1H-pyrrolo[2,3-b]pyridin-4-yl)oxy)phenyl)-2-(dimethylamino)-N-(tetrahydro-2H-pyran-4-yl)propanamide], the Ki on Rho kinase 2 (ROCK-II) and on Rho kinase 1 (ROCK-I) was more than 30 nM each time.
Consider `CN(Cc1ccccc1)C(=O)[C@H](N)Cc1ccc(Oc2ccnc3[nH]ccc23)cc1` [Example 144, (R)-3-(4-((1H-pyrrolo[2,3-b]pyridin-4-yl)oxy)phenyl)-2-amino-N-benzyl-N-methylpropanamide], for which the Ki at Rho kinase 2 (ROCK-II) and at Rho kinase 1 (ROCK-I) was more than 30 nM each time.
On to `COc1ccc(CN2CCN(C(=O)C(N)Cc3ccc(Oc4ccnc5[nH]cc(C)c45)c(F)c3)CC2)cc1` (centres unmarked) [Example 75, 2-amino-3-(3-fluoro-4-((3-methyl-1H-pyrrolo[2,3-b]pyridin-4-yl)oxy)phenyl)-1-(4-(4-methoxybenzyl)piperazin-1-yl)propan-1-one], for which the Ki on Rho kinase 2 (ROCK-II) and at Rho kinase 1 (ROCK-I) was less than 3 nM each time.
`Cc1c[nH]c2nccc(Oc3ccc(C[C@H](N)C(=O)N4CCN(C)C(c5ccccc5)C4)cc3F)c12` (mixture of isomers) [Example 6, (2S)-2-amino-3-(3-fluoro-4-((3-methyl-1H-pyrrolo[2,3-b]pyridin-4-yl)oxy)phenyl)-1-(4-methyl-3-phenylpiperazin-1-yl)propan-1-one]: the Ki on Rho kinase 2 (ROCK-II) and on Rho kinase 1 (ROCK-I) was less than 3 nM in each case.
Consider `Cc1c[nH]c2nccc(Oc3ccc(C[C@H](N)C(=O)N(C)CC4CCN(C)CC4)cc3F)c12` [Example 39, (S)-2-amino-3-(3-fluoro-4-((3-methyl-1H-pyrrolo[2,3-b]pyridin-4-yl)oxy)phenyl)-N-methyl-N-((1-methylpiperidin-4-yl)methyl)propanamide], for which the Ki at Rho kinase 2 (ROCK-II) and on Rho kinase 1 (ROCK-I) was 3 to 30 nM each time.
Take `Cc1c[nH]c2nccc(Oc3ccc(C[C@H](N)C(=O)N4CCN(S(=O)(=O)c5ccccc5)CC4)cc3F)c12` [Example 22, (S)-2-amino-3-(3-fluoro-4-((3-methyl-1H-pyrrolo[2,3-b]pyridin-4-yl)oxy)phenyl)-1-(4-(phenylsulfonyl)piperazin-1-yl)propan-1-one]: the Ki on Rho kinase 2 (ROCK-II) and on Rho kinase 1 (ROCK-I) was less than 3 nM each time.
Regarding `Cc1c[nH]c2nccc(Oc3ccc(C[C@H](N)C(=O)NC4CCOCC4)cc3)c12` [Example 90, (S)-2-amino-3-(4-((3-methyl-1H-pyrrolo[2,3-b]pyridin-4-yl)oxy)phenyl)-N-(tetrahydro-2H-pyran-4-yl)propanamide], the Ki on Rho kinase 2 (ROCK-II) and at Rho kinase 1 (ROCK-I) was less than 3 nM each time.
With `Cc1c[nH]c2nccc(Oc3ccc(C[C@H](N)C(=O)NC4(C#N)CCCCC4)cc3F)c12` [Example 34, (S)-2-amino-N-(1-cyanocyclohexyl)-3-(3-fluoro-4-((3-methyl-1H-pyrrolo[2,3-b]pyridin-4-yl)oxy)phenyl)propanamide], the Ki at Rho kinase 2 (ROCK-II) and on Rho kinase 1 (ROCK-I) was less than 3 nM throughout.
Turning to `COCc1c[nH]c2nccc(Oc3ccc(C[C@H](N)C(=O)N4CCN(C)CC4)cc3F)c12` [Example 215, (S)-2-amino-3-(3-fluoro-4-((3-(methoxymethyl)-1H-pyrrolo[2,3-b]pyridin-4-yl)oxy)phenyl)-1-(4-methylpiperazin-1-yl)propan-1-one], the inhibitory constant (Ki) at Rho kinase 2 (ROCK-II) and on Rho kinase 1 (ROCK-I) was 3 to 30 nM each time.
Turning to `CNC(=O)c1ccc(CN2CCN(C(=O)[C@@H](N)Cc3ccc(Oc4ccnc5[nH]cc(C)c45)c(F)c3)CC2)o1` [Example 166, (S)-5-((4-(2-amino-3-(3-fluoro-4-((3-methyl-1H-pyrrolo[2,3-b]pyridin-4-yl)oxy)phenyl)propanoyl)piperazin-1-yl)methyl)-N-methylfuran-2-carboxamide], the Ki on Rho kinase 2 (ROCK-II) and at Rho kinase 1 (ROCK-I) was less than 3 nM in each case.
For `Cc1c[nH]c2nccc(Oc3ccc(C[C@H](N)C(=O)N4CCN(C(=O)c5cn(C)cn5)CC4)cc3F)c12` [Example 176, (S)-2-amino-3-(3-fluoro-4-((3-methyl-1H-pyrrolo[2,3-b]pyridin-4-yl)oxy)phenyl)-1-(4-(1-methyl-1H-imidazole-4-carbonyl)piperazin-1-yl)propan-1-one], the Ki on Rho kinase 2 (ROCK-II) was less than 3 nM; on Rho kinase 1 (ROCK-I), 3 to 30 nM.
Take `N[C@@H](Cc1ccc(Oc2ccnc3[nH]cc(-c4cnoc4)c23)cc1)C(=O)N1CCN(Cc2ccccc2)CC1` [Example 198, (S)-2-amino-1-(4-benzylpiperazin-1-yl)-3-(4-((3-(isoxazol-4-yl)-1H-pyrrolo[2,3-b]pyridin-4-yl)oxy)phenyl)propan-1-one]: the Ki on Rho kinase 2 (ROCK-II) and on Rho kinase 1 (ROCK-I) was less than 3 nM throughout.
For `Cc1c[nH]c2nccc(Oc3ccc(C[C@H](N)C(=O)N4CCN5CCOCC5C4)cc3F)c12` (stereo partly drawn) [Example 16, (2S)-2-amino-3-(3-fluoro-4-((3-methyl-1H-pyrrolo[2,3-b]pyridin-4-yl)oxy)phenyl)-1-(hexahydropyrazino[2,1-c][1,4]oxazin-8(1H)-yl)propan-1-one], the Ki on Rho kinase 2 (ROCK-II) and on Rho kinase 1 (ROCK-I) was less than 3 nM each time.
On to `Cc1c[nH]c2nccc(Oc3ccc(C[C@H](N)C(=O)N4CCN(Cc5ccc(OCCCN(C)C)cc5)CC4)cc3F)c12` [Example 160, (S)-2-amino-1-(4-(4-(3-(dimethylamino)propoxy)benzyl)piperazin-1-yl)-3-(3-fluoro-4-((3-methyl-1H-pyrrolo[2,3-b]pyridin-4-yl)oxy)phenyl)propan-1-one], for which the Ki on Rho kinase 2 (ROCK-II) and at Rho kinase 1 (ROCK-I) was less than 3 nM each time.
As for `Cc1c[nH]c2nccc(Oc3ccc(C[C@H](N)C(=O)Nc4ccccc4)cc3)c12` [Example 137, (S)-2-amino-3-(4-((3-methyl-1H-pyrrolo[2,3-b]pyridin-4-yl)oxy)phenyl)-N-phenylpropanamide], the Ki at Rho kinase 2 (ROCK-II) and on Rho kinase 1 (ROCK-I) was less than 3 nM throughout.
Regarding `CN(C(=O)[C@H](N)Cc1ccc(Oc2ccnc3[nH]ccc23)cc1)C1CCCCC1` [Example 102, (R)-3-(4-((1H-pyrrolo[2,3-b]pyridin-4-yl)oxy)phenyl)-2-amino-N-eyclohexyl-N-methylpropanamide], the Ki on Rho kinase 2 (ROCK-II) and at Rho kinase 1 (ROCK-I) was more than 30 nM each time.
Take `Cc1cc2c(Oc3ccc(C[C@H](N)C(=O)N4CCN(Cc5ccccc5)CC4)cc3F)ccnc2[nH]1` [Example 86, (S)-2-amino-1-(4-benzylpiperazin-1-yl)-3-(3-fluoro-4-((2-methyl-1H-pyrrolo[2,3-b]pyridin-4-yl)oxy)phenyl)propan-1-one]: the Ki at Rho kinase 2 (ROCK-II) and on Rho kinase 1 (ROCK-I) was more than 30 nM in each case.
For `Cc1c[nH]c2nccc(Oc3ccc(CC(N)C(=O)NCC4CCN(Cc5ccccc5)CC4)cc3F)c12` (centres unmarked) [Example 82, 2-amino-N-((1-benzylpiperidin-4-yl)methyl)-3-(3-fluoro-4-((3-methyl-1H-pyrrolo[2,3-b]pyridin-4-yl)oxy)phenyl)propanamide], the Ki on Rho kinase 2 (ROCK-II) and on Rho kinase 1 (ROCK-I) was less than 3 nM each time.
With `CNC(=O)C(Cc1ccc(Oc2ccnc3[nH]ccc23)cc1)NCC1CCCCC1` (centres unmarked) [Example 185, 3-(4-((1H-pyrrolo[2,3-b]pyridin-4-yl)oxy)phenyl)-2-((cyclohexylmethyl)amino)-N-methylpropanamide], the Ki on Rho kinase 2 (ROCK-II) and at Rho kinase 1 (ROCK-I) was more than 30 nM each time.
On to `Cc1c[nH]c2nccc(Oc3ccc(C[C@H](N)C(=O)N4CCN(C(=O)c5ccc(CN(C)C)cc5)CC4)cc3F)c12` [Example 172, (S)-2-amino-1-(4-(4-((dimethylamino)methyl)benzoyl)piperazin-1-yl)-3-(3-fluoro-4-((3-methyl-1H-pyrrolo[2,3-b]pyridin-4-yl)oxy)phenyl)propan-1-one], for which the Ki on Rho kinase 2 (ROCK-II) and on Rho kinase 1 (ROCK-I) was less than 3 nM throughout.
Take `CN1CCC(NC(=O)[C@@H](N)Cc2ccc(Oc3ccnc4[nH]cc(CO)c34)c(F)c2)CC1` [Example 210, (S)-2-amino-3-(3-fluoro-4-((3-(hydroxymethyl)-1H-pyrrolo[2,3-b]pyridin-4-yl)oxy)phenyl)-N-(1-methylpiperidin-4-yl)propanamide]: the Ki on Rho kinase 2 (ROCK-II) and on Rho kinase 1 (ROCK-I) was 3 to 30 nM in each case.
With `Cc1c[nH]c2nccc(Oc3ccc(C[C@H](N)C(=O)N4C[C@@H](C)N(Cc5ccccc5)[C@@H](C)C4)cc3F)c12` [Example 26, (S)-2-amino-1-((3S,5R)-4-benzyl-3,5-dimethylpiperazin-1-yl)-3-(3-fluoro-4-((3-methyl-1H-pyrrolo[2,3-b]pyridin-4-yl)oxy)phenyl)propan-1-one], the inhibition constant Ki at Rho kinase 2 (ROCK-II) and on Rho kinase 1 (ROCK-I) was less than 3 nM each time.
As to `N[C@H](Cc1ccc(Oc2ccnc3[nH]ccc23)cc1)C(=O)Nc1ccccc1` [Example 110, (R)-3-(4-((1H-pyrrolo[2,3-b]pyridin-4-yl)oxy)phenyl)-2-amino-N-phenylpropanamide], the Ki is 3 to 30 nM at Rho kinase 2 (ROCK-II) and more than 30 nM at Rho kinase 1 (ROCK-I).
Take `CN(CC1CCCCC1)C(=O)[C@@H](N)Cc1ccc(Oc2ccnc3[nH]ccc23)cc1` [Example 92, (S)-3-(4-((1H-pyrrolo[2,3-b]pyridin-4-yl)oxy)phenyl)-2-amino-N-(cyclohexylmethyl)-N-methylpropanamide]: the Ki on Rho kinase 2 (ROCK-II) and on Rho kinase 1 (ROCK-I) was 3 to 30 nM each time.
Regarding `Cc1c[nH]c2nccc(Oc3ccc(CC(N)C(=O)NCCc4ccccn4)cc3F)c12` (centres unmarked) [Example 69, 2-amino-3-(3-fluoro-4-((3-methyl-1H-pyrrolo[2,3-b]pyridin-4-yl)oxy)phenyl)-N-(2-(pyridin-2-yl)ethyl)propanamide], the Ki on Rho kinase 2 (ROCK-II) and on Rho kinase 1 (ROCK-I) was less than 3 nM in each case.
